# Source: patent US20260125400A1, “TYK2 DEGRADERS AND USES THEREOF” (Kymera Therapeutics, Inc., priority 2023, published 2026)
# Like-named read-outs stand apart in the source and are kept apart here.
# Target: T1, TYK2 (Homo sapiens, UniProt P29597)
# T1 construct: Degradation of TYK2 in cells was quantitatively measured using Meso Scale Discovery (MSD) technology; endogenous in cells; host or cells: OCI-LY10
# Assay: TYK2 MSD degradation in OCI-LY10 cells
# Type: cell-based
# Conditions: 4 to 24 hours incubation; for DC50: read-out: TYK2 MSD OCI-LY10 Rel-DC50
# Summary of the method: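 OCI-LY10 cells were treated with 9-dose 1:3 series (top 1 to 10 μM final) for 4 to 24 hours at 37° C. Lysate TYK2 quantified by MSD sandwich immunoassay; DC50 and Dmax from four-parameter inhibitor vs. response fit.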
# [1] = TYK2 degradation in OCI-LY10 cells
# T1 sequence (P29597 whole entry): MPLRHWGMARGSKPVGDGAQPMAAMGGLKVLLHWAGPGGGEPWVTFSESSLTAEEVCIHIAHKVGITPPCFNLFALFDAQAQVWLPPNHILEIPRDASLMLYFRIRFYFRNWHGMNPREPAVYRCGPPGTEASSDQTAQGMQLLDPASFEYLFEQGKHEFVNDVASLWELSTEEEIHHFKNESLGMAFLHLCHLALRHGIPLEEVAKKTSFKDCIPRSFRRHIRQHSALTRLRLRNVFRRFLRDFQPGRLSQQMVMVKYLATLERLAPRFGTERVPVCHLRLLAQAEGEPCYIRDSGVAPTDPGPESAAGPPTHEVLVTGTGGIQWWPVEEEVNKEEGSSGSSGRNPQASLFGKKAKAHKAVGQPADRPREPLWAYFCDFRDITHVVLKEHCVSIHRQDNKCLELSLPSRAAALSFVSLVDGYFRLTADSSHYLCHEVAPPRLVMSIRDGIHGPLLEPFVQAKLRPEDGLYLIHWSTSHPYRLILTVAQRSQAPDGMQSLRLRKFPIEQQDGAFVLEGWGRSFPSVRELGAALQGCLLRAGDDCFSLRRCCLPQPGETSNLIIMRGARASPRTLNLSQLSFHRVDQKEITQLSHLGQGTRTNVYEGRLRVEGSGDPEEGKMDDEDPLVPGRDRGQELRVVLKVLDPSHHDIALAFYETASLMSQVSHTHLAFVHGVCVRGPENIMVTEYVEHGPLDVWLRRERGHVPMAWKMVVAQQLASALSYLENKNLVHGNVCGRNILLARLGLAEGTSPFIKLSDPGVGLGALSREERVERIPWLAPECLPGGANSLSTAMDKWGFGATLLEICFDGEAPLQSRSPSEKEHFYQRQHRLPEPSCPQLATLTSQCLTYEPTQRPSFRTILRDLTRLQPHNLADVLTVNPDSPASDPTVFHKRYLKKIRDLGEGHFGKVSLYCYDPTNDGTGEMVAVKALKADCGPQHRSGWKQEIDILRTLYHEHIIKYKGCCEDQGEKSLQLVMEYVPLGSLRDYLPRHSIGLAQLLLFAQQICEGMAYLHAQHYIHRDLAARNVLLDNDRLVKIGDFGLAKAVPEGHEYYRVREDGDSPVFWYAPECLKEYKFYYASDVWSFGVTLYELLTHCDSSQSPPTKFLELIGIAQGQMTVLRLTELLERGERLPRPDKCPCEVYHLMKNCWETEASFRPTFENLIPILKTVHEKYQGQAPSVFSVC
Structure (SMILES),TYK2 MSD OCI-LY10 Dmax % [1],DC50 [1] [nM],TYK2 MSD OCI-LY10 Dmax % (OCI-LY10 cells),DC50 (OCI-LY10 cells) [nM],Dmax [1] [%]
CNc1cc(N2CCc3c(-c4ccc(CN5CCC6(CC5)CCN(c5ccc(N7CCC(=O)NC7=O)c(Cl)c5)CC6)cn4)cccc32)nn2c(C(=O)N[C@@H]3C[C@@H]3F)cnc12 [I-74],D (D (<50%)),< 10,,,
CNc1cc(N2CCc3c(CN4CCC(N5CCC6(CCN(C(=O)c7cc(C)c(Cl)c(N8CCC(=O)NC8=O)c7)CC6)CC5)C(F)(F)C4)cc(F)cc32)nn2c(C(=O)N[C@@H]3CC[C@H]3OC)cnc12 (stereo partly shown) [I-1114],A (A (>90%)),< 1,,,
CNc1cc(N2CCc3c(CN4CCC(N5CCC6(CCN(C(=O)c7cc(N8CCC(=O)NC8=O)c(Cl)c(C)n7)CC6)CC5)C(F)(F)C4)cc(F)cc32)nn2c(C(=O)N[C@@H]3CC[C@H]3OC)cnc12 (stereo partly shown) [I-1159],A (A (>90%)),< 1,,,
CNc1cc(N2CCc3c(N4CC(CN5CCN(C6CCN(C(=O)c7ccc(Cl)c(N8CCC(=O)NC8=O)c7)CC6)CC5)C4)cccc32)nn2c(C(=O)N[C@@H]3C[C@@H]3F)cnc12 [I-787],,,D (D (<50%)),> 100,
CNc1cc(N2CCc3c(-c4ccc(CN5CCC(N6CCC(CC#Cc7ccc8c(c7)n(C)c(=O)n8C7CCC(=O)NC7=O)CC6)C(F)(F)C5)cn4)cccc32)nn2c(C(=O)N[C@@H]3C[C@@H]3F)cnc12 (stereo partly shown) [I-469],,,B (B (90 to >75%)),< 10,
CNc1cc(-c2cn(C3CCN(CCC4CCN(C(=O)c5ccc(Cl)c(N6CCC(=O)NC6=O)c5)CC4)CC3)c3ccccc23)nn2c(C(=O)N[C@@H]3C[C@@H]3F)cnc12 [I-779],,,D (D (<50%)),> 100,
CNc1cc(-c2ccc(-c3ccc(CN4CC5(CCN(C(=O)c6ccc(Cl)c(N7CCC(=O)NC7=O)c6)CC5(F)F)C4)cn3)cc2)nn2c(C(=O)N[C@@H]3C[C@@H]3F)cnc12 [I-880],B (B (90 to >75%)),< 10,,,
CNc1cc(N2CCc3c(-c4ccc(CN5CC6(CCN(Cc7ccc(Cl)c(C8CCC(=O)NC8=O)c7)CC6(F)F)C5)cn4)cccc32)nn2c(C(=O)N[C@@H]3C[C@@H]3F)cnc12 (stereo partly shown) [I-365],C (C (75 to 50%)),< 10,,,
CNc1cc(-c2cn(CC3CCN(CC4CCN(C(=O)c5ccc(Cl)c(N6CCC(=O)NC6=O)c5)CC4)CC3)c3ccccc23)nn2c(C(=O)N[C@@H]3C[C@@H]3F)cnc12 [I-773],,,D (D (<50%)),> 100,
CNc1cc(N2CCc3c(CN4CCC(N5CC(CN6CCN(c7ccc8c(c7)n(C)c(=O)n8C7CCC(=O)NC7=O)CC6)C5)C(F)(F)C4)cccc32)nn2c(C(=O)N[C@@H]3C[C@@H]3F)cnc12 (stereo partly shown) [I-468],,,B (B (90 to >75%)),< 1,
CNc1cc(N2CCc3c(-c4cnc(CC5CC6(CCN(C(=O)c7cc(C)c(Cl)c(N8CCC(=O)NC8=O)c7)CC6)C5)cn4)cccc32)nn2c(C(=O)N[C@@H]3C[C@@H]3F)cnc12 [I-760],,,B (B (90 to >75%)),< 10,
CNc1cc(N2CCc3c(CN4CCC(N5CCC(N6CCN(C(=O)c7ccc(Cl)c(N8CCC(=O)NC8=O)c7)CC6)C5)C(F)(F)C4)cccc32)nn2c(C(=O)N[C@@H]3C[C@@H]3F)cnc12 (stereo partly shown) [I-803],A (A (>90%)),< 1,,,
CNc1cc(N2CCc3c(N4CCN(C5CCN(C(=O)c6ccc(Cl)c(N7CCC(=O)NC7=O)c6)CC5)CC4)cccc32)nn2c(C(=O)N[C@@H]3C[C@@H]3F)cnc12 [I-94],D (D (<50%)),> 100,,,
CNc1cc(N2CCc3c(-c4ccc(CN5CCC6(CCN(C(=O)c7cc(C)c(Cl)c(N8CCC(=O)NC8=O)c7)CC6)C(F)(F)C5)cn4)cccc32)nn2c(C(=O)NC3CCCC3(F)F)cnc12 (stereo not shown) [I-998],C (C (75 to 50%)),10 to 100,,,
CNC(=O)c1cnc(Nc2ccc(C(=O)NCCOCCOCCOCCN(C(=O)C3CCCN(c4cncc5ccccc45)C3)c3ccc(=O)n(CC(=O)O)c3)cn2)cc1Nc1cccc(-c2ncccn2)c1OC (stereo not shown) [I-918],D (D (<50%)),> 100,,,
CNc1cc(N2CCc3c(CN4CCC(N5CC(C6CCN(C(=O)c7ccc(Cl)c(N8CCC(=O)NC8=O)c7)CC6)C5)C(F)(F)C4)cccc32)nn2c(C(=O)N[C@@H]3C[C@@H]3F)cnc12 (stereo partly shown) [I-791],,,A (A (>90%)),< 1,
CNc1cc(N2CCc3c(-c4ccc(CN5CCC6(CCN(C(=O)c7cc(C)c(Cl)c(N8CCC(=O)NC8=O)c7)CC6)C(F)(F)C5)cn4)cc(F)cc32)nn2c(C(=O)N[C@@H]3C[C@@H]3F)cnc12 [I-815],B (B (90 to >75%)),< 10,,,
CNc1cc(-c2cccc(N3CCN(Cc4ccc5c(c4)n(C)c(=O)n5C4CCC(=O)NC4=O)CC3)n2)nn2c(C(=O)NC3CC3)cnc12 (stereo not shown) [I-198],D (D (<50%)),> 100,,,

Structure (SMILES),TYK2 MSD OCI-LY10 Dmax % [1],DC50 [1] [nM],TYK2 MSD OCI-LY10 Dmax % (OCI-LY10 cells),DC50 (OCI-LY10 cells) [nM],Dmax [1] [%]
CNc1cc(N2CCc3c(N4CCC(CN5CCC(N6CCN(c7ccc8c(c7)n(C)c(=O)n8C7CCC(=O)NC7=O)CC6)C(F)(F)C5)CC4)cccc32)nn2c(C(=O)NC3CC3)cnc12 (stereo not shown) [I-5],C (C (75 to 50%)),< 10,,,
CNc1cc(N2CCc3c(-c4ncc([C@H](C)N5CC6(CCN(C(=O)c7cc(C)c(Cl)c(N8CCC(=O)NC8=O)c7)CC6(F)F)C5)cc4F)cccc32)nn2c(C(=O)N[C@@H]3CC[C@H]3OC)cnc12 [I-1143],A (A (>90%)),< 1,,,
CNc1cc(N2CCc3c(-c4ccc(CN5CC6(CCN(C(=O)c7ccc(Cl)c(N8CCC(=O)NC8=O)c7)CC6(F)F)C5)cn4)cccc32)nn2c(C(=O)N[C@H]3C[C@H](C)C3)cnc12 [I-888],B (B (90 to >75%)),< 10,,,
CNc1cc(N2CCc3c(-c4ccc(CN5CCC6(CCN(C(=O)c7ccc(Cl)c(N8CCC(=O)NC8=O)c7)C6)C5)cn4)cccc32)nn2c(C(=O)NC3CC3F)cnc12 (stereo not shown) [I-302],C (C (75 to 50%)),< 1,,,
CNc1cc(N2CCc3c(-c4cc(N5CCC6(CCN(C(=O)c7ccc(Cl)c(N8CCC(=O)NC8=O)c7)CC6)CC5)ccn4)cccc32)nn2c(C(=O)N[C@@H]3C[C@@H]3F)cnc12 [I-248],C (C (75 to 50%)),< 10,,,
CNc1cc(N2CCc3c(-c4ccc(CN5CCC(N6CCC(Oc7ccc(Cl)c(N8CCC(=O)NC8=O)c7)CC6)C(F)(F)C5)cn4)cccc32)nn2c(C(=O)N[C@@H]3C[C@@H]3F)cnc12 (stereo partly shown) [I-245],D (D (<50%)),> 100,,,
"CNC(=O)c1cnc(Nc2ccc(C(=O)NCCOCCOCCOCCOCCN(C(=O)[C@H]3CCCN(c4cncc5ccccc45)C3)c3ccc(=O)n(CC(=O)OC)c3)cn2)cc1Nc1cccc(-c2ncccn2)c1OC [I-912, Methyl (S)-2-(5-(1-(isoquinolin-4-yl)-N-(1-(6-((4-((2-methoxy-3-(pyrimidin-2-yl)phenyl)amino)-5-(methylcarbamoyl)pyridin-2-yl)amino)pyridin-3-yl)-1-oxo-5,8,11,14-tetraoxa-2-azahexadecan-16-yl)piperidine-3-carboxamido)-2-oxopyridin-1(2H)-yl)acetate]",,> 100,,,< 50
CNc1cc(N2CCc3c(-c4ncc(CN5CC6(CCN(C(=O)c7cc(N8CCC(=O)NC8=O)c(Cl)cn7)CC6(F)F)C5)cc4F)cc(F)cc32)nn2c(C(=O)N[C@@H]3CC[C@H]3OC)cnc12 [I-1149],A (A (>90%)),< 1,,,
CNc1cc(N2CCc3c(-c4ncc(CN5CC6(CCN(C(=O)c7cc(C)c(Cl)c(N8CCC(=O)NC8=O)c7)CC6(F)F)C5)cc4Cl)cccc32)nn2c(C(=O)N[C@@H]3C[C@@H]3F)cnc12 [I-747],,,B (B (90 to >75%)),< 10,
CNc1cc(N2CCc3c(-c4ccc(CN5CC6(CCN(C(=O)c7ccc(Cl)c(N8CCC(=O)NC8=O)c7)CC6(F)F)C5)cn4)cccc32)nn2c(C(=O)N[C@H]3C[C@@H](F)C3)cnc12 [I-883],A (A (>90%)),< 1,,,
CNc1cc(N2CCc3c(N4CCN(CCC5CC6(CCN(C(=O)c7ccc(Cl)c(N8CCC(=O)NC8=O)c7)CC6)C5)CC4)cccc32)nn2c(C(=O)N[C@@H]3C[C@@H]3F)cnc12 [I-887],B (B (90 to >75%)),< 10,,,
CNc1cc(N2CCc3c(-c4ccc(CN5CCC6(CCN(C(=O)c7cc(Cl)c(F)c(N8CCC(=O)NC8=O)c7)CC6)C(F)(F)C5)cn4)cccc32)nn2c(C(=O)N[C@@H]3C[C@@H]3F)cnc12 [I-792],,,B (B (90 to >75%)),< 10,
CNc1cc(N2CCc3c(C4CCCN(CC5CC6(C5)CN(c5ccc7c(c5)n(C)c(=O)n7C5CCC(=O)NC5=O)C6)C4)cccc32)nn2c(C(=O)NC3CC3)cnc12 (stereo not shown) [I-59],D (D (<50%)),< 1,,,
CNc1cc(N2CCc3c(-c4ccc(CN5CC6(CCN(C(=O)c7ccc(Cl)c(N8CCC(=O)NC8=O)c7)CC6(F)F)C5)cn4)cc(OC)cc32)nn2c(C(=O)N[C@@H]3C[C@@H]3F)cnc12 [I-859],B (B (90 to >75%)),< 10,,,
CNc1cc(N2CCc3c(-c4ccc(CN5CCN(C6CCN(C(=O)c7cc(C)c(Cl)c(N8CCC(=O)NC8=O)c7)CC6(F)F)CC5)cn4)cccc32)nn2c(C(=O)N[C@@H]3CC[C@H]3OC)cnc12 (stereo partly shown) [I-1161],B (B (90 to >75%)),< 1,,,
CNc1cc(N2CCc3c(CN4CCC(N5CCC(C6CCN(C(=O)c7ccc(Cl)c(N8CCC(=O)NC8=O)c7)CC6)CC5)C(F)(F)C4)cccc32)nn2c(C(=O)N[C@@H]3C[C@@H]3F)cnc12 (stereo partly shown) [I-780],,,A (A (>90%)),< 1,
CNc1cc(N2CCc3c(C#CCN4CCC(N5CCC6(CC5)CN(C(=O)c5ccc(Cl)c(N7CCC(=O)NC7=O)c5)C6)C(F)(F)C4)cccc32)nn2c(C(=O)N[C@@H]3C[C@@H]3F)cnc12 (stereo partly shown) [I-702],,,B (B (90 to >75%)),< 1,
